Results: paper PMC8530378, “Comparison of: (2S,4R)-4-[^18F]Fluoroglutamine, [^11C]Methionine, and 2-Deoxy-2-[^18F]Fluoro-D-Glucose and Two Small-Animal PET/CT Systems Imaging Rat Gliomas” (Frontiers in Oncology, 2021)
Each block holds one compound with its values, some of them ahead of it.

Legend:
BT4C gliomas = assay: Ex vivo brain autoradiography, tumor-to-healthy brain uptake ratio; assay type: in vivo; conditions: ex vivo autoradiography of brain slices, BT4C glioma-bearing BDIX rats
Method: Ex vivo biodistribution studies were performed for [^18F]FGln with a complete organ list and results are listed in the Supplementary Material Some subjects from each radiopharmaceutical imaging group were sacrificed for autoradiographical and histological studies immediately after PET imaging. All autoradiography images were analyzed with Carimas software (Turku PET Centre, Turku, Finland).
The excised brains containing tumors were frozen with liquid nitrogen, sectioned with a Leica CM3050S cryotome into alternating 20 and 8 µm slices on different slides for hematoxylin/eosin and future histochemical staining respectively. […] The slides were then stained with hematoxylin/eosin and digitally scanned with a Pannoramic 250 Flash slide scanner (3DHistech, Budapest, Hungary) Autoradiographs and light micrographs were then aligned in Carimas software (Turku PET Centre, Turku, Finland) and analyzed therein.

orthotopic BT4C gliomas = assay: Dynamic PET/CT imaging of orthotopic BT4C gliomas, tumor-to-healthy brain uptake ratio (TBR); assay type: in vivo; conditions: dynamic PET images, both cameras pooled, BT4C glioma-bearing BDIX rats
Method: The 16 glioma-bearing BDIX-Ifz rats (herein "BDIX") for imaging studies (8 weeks old, 9 males and 7 females) were anesthetized under 2-2.5% isoflurane and given buprenorphine (0.01 mg/kg) and carprofen (5 mg/kg) for analgesia during surgery. […] All animals were sacrificed after either the final imaging (PET studies) or the final blood sample collection (metabolism studies) under deep isoflurane anesthesia (4%) via cervical dislocation after cardiac puncture to collect terminal blood samples. […] The injected amount of radioactivity also varied based on camera and radionuclide. […] Each PET image was separately examined, in the initial 20 s of frames for the amino-acid-based radiopharmaceuticals and 40-60 min frames for [^18F]FDG, to manually delineate heart left ventricle cavity voxels to use as a blood radioactivity estimation region of interest (ROI). […] The dynamic PET image data was then extracted from each separate image and converted to standardized uptake values (SUV) which account for ROI volume, mean ROI radioactivity, subject weight, and total injected radioactivity dose (corrected for decay, residual syringe and cannula radioactivity). The results are shown as SUV ROI radioactivity curves over time as well as tumor-to-healthy brain region (TBR) ratios for improved comparisons. […]

[1] = system: BT4C glioma and healthy brain ROIs; assay: Irreversible two-tissue compartment model of dynamic [^18F]FGln PET; assay type: in vivo, BDIX rats; conditions: irreversible 2-tissue model, n = 13; for K1 (AB) plasma to tissue transport rate / K1/k2 (AB) equilibrium distribution volume / k3 (AB) rate constant / k3/(k2+k3) (AB): arterial blood input; for K1 (FP) plasma to tissue transport rate / K1/k2 (FP) equilibrium distribution volume / k3 (FP) rate constant / k3/(k2+k3) (FP): free parent plasma input; for K1 (P) plasma to tissue transport rate / K1/k2 (P) equilibrium distribution volume / k3 (P) rate constant / k3/(k2+k3) (P): unbound plasma input
Text: (§1) The dynamic PET image data was then extracted from each separate image and converted to standardized uptake values (SUV) which account for ROI volume, mean ROI radioactivity, subject weight, and total injected radioactivity dose (corrected for decay, residual syringe and cannula radioactivity). The results are shown as SUV ROI radioactivity curves over time as well as tumor-to-healthy brain region (TBR) ratios for improved comparisons. [^18F]FGln uptake data and blood radioactivity data (corrected for bioavailability fraction over time) were also input into multiple pharmacokinetic models described in the "[^18F]FGln Pharmacokinetic Modeling" section.
(§2) Blood input values from the heart left ventricle ROI in the PET image data were corrected for bioavailable fraction with Eqn. 2. Logan ([25]), Patlak ([26]), and two two-compartment models ([27]) (reversible and irreversible) were applied to whole-blood, unbound plasma fraction, and unbound plasma fraction assayed for parent-radiopharmaceutical purity as inputs for tumor and healthy brain ROIs. Mean, standard deviation, and two-tailed unpaired Student's t-test (for camera comparison, modeling values, and gender differences) p-values are reported where applicable.

[2] = system: BT4C glioma and healthy brain ROIs; assay: Reversible two-tissue compartment model of dynamic [^18F]FGln PET; assay type: in vivo, BDIX rats; conditions: reversible 2-tissue model, n = 13; for K1 (AB) plasma to tissue transport rate / K1/k2 (AB) equilibrium distribution volume / k3 (AB) rate constant / k3/k4 (AB): arterial blood input; for K1 (FP) plasma to tissue transport rate / K1/k2 (FP) equilibrium distribution volume / k3 (FP) rate constant / k3/k4 (FP): free parent plasma input; for K1 (P) plasma to tissue transport rate / K1/k2 (P) equilibrium distribution volume / k3 (P) rate constant / k3/k4 (P): unbound plasma input
Text: as §1, §2

[3] = [^18F]FGln in vivo stability analysis (bioavailable fraction of whole blood radioactivity); conditions: both sexes, BDIX, rat, 40 MBq, healthy BDIX rats, approximately 60 min post-injection, n = 10, read-out: Bioavailable [^18F]FGln-fraction of total blood radioactivity
Method: Additional healthy BDIX rats (n = 10, 5 male, 5 female) were injected with approximately 40 MBq of [^18F]FGln and 150–200 µL aliquots of blood drawn at 5, 15, 30, 45, and 60 min into a heparin coated vial at 5°C to be assayed. During the final 60 min collection time point, animals were sacrificed under deep anesthesia via cardiac puncture and cervical dislocation. All radioactivity measurements were performed with a 3″ Nal system (Triathler, Hidex Oy, Turku Finland). Whole blood was weighed and measured for radioactivity before being centrifuged at 700 ×g and 4°C for 5 min. The plasma was separated out before being weighed and gamma counted followed by storage on ice for the later described assays. Hematocrit values used were averaged separately for male and female populations with five samples for each group. The following Equation 1 ([23]) was then used to calculate the radioactivity fraction taken up by the red blood cells and the available plasma fraction to avoid including plasma contamination in the blood cell fraction: […]
Where C = radioactivity concentration, ρ = density, RBC = red blood cell, and HCT = hematocrit. […]
Plasma aliquots (80 µL) were then precipitated with methanol (200 µL) before being vortexed thoroughly and centrifuged at 11,000 ×g for 10 min. The two fractions were separated and measured for radioactivity to calculate the unbound radioactivity fraction of the plasma. […]

[4] = system: BT4C glioma and healthy brain ROIs; assay: Logan plot (reversible uptake model) of dynamic [^18F]FGln PET; assay type: in vivo, BDIX rats; conditions: n = 13; for DV (AB): arterial blood radioactivity input; for DV (P): unbound plasma radioactivity fraction input
Text: as §1, §2

[5] = system: BT4C glioma and healthy brain ROIs; assay: Patlak plot (irreversible uptake model) of dynamic [^18F]FGln PET; assay type: in vivo, BDIX rats; conditions: n = 13; for Ic (AB) y intercept: arterial blood input; for Ic (FP) y intercept: free parent plasma input; for Ic (P) y intercept: unbound plasma input
Text: as §1, §2

- Tumor-to-healthy brain uptake ratio (BT4C gliomas): 2.93 ± 0.57
- Average tumor-to-healthy brain tissue uptake ratio (TBR), maximum (orthotopic BT4C gliomas): 1.41 ± 0.11
Compound: 2-deoxy-2-[^18F]fluoro-D-glucose [[^18F]FDG]

- K1 (AB) plasma to tissue transport rate ([1]; healthy brain): 0.063 ± 0.053 mL min^-1 mL^-1
- K1/k2 (AB) equilibrium distribution volume ([1]; healthy brain): 0.338 ± 0.159 mL mL^-1
- k3 (AB) rate constant ([1]; healthy brain): 0.022 ± 0.010 min⁻¹
- k3/(k2+k3) (AB) ([1]; healthy brain): 0.126 ± 0.068 min min^-1
- K1 (FP) plasma to tissue transport rate ([1]; healthy brain): 0.033 ± 0.018 mL min^-1 mL^-1
- K1/k2 (FP) equilibrium distribution volume ([1]; healthy brain): 0.524 ± 0.324 mL mL^-1
- k3 (FP) rate constant ([1]; healthy brain): 0.064 ± 0.063 min⁻¹
- k3/(k2+k3) (FP) ([1]; healthy brain): 0.420 ± 0.146 min min^-1
- K1 (P) plasma to tissue transport rate ([1]; healthy brain): 0.024 ± 0.017 mL min^-1 mL^-1
- K1/k2 (P) equilibrium distribution volume ([1]; healthy brain): 0.221 ± 0.105 mL mL^-1
- k3 (P) rate constant ([1]; healthy brain): 0.028 ± 0.014 min⁻¹
- k3/(k2+k3) (P) ([1]; healthy brain): 0.215 ± 0.096 min min^-1
- K1 (AB) plasma to tissue transport rate ([1]; tumor): 0.088 ± 0.039 mL min^-1 mL^-1
- K1/k2 (AB) equilibrium distribution volume ([1]; tumor): 0.876 ± 0.29 mL mL^-1
- k3 (AB) rate constant ([1]; tumor): 0.017 ± 0.005 min⁻¹
- k3/(k2+k3) (AB) ([1]; tumor): 0.156 ± 0.078 min min^-1
- K1 (FP) plasma to tissue transport rate ([1]; tumor): 0.083 ± 0.113 mL min^-1 mL^-1
- K1/k2 (FP) equilibrium distribution volume ([1]; tumor): 1.841 ± 0.967 mL mL^-1
- k3 (FP) rate constant ([1]; tumor): 0.105 ± 0.246 min⁻¹
- k3/(k2+k3) (FP) ([1]; tumor): 0.385 ± 0.157 min min^-1
- K1 (P) plasma to tissue transport rate ([1]; tumor): 0.037 ± 0.015 mL min^-1 mL^-1
- K1/k2 (P) equilibrium distribution volume ([1]; tumor): 0.685 ± 0.330 mL mL^-1
- k3 (P) rate constant ([1]; tumor): 0.017 ± 0.007 min⁻¹
- k3/(k2+k3) (P) ([1]; tumor): 0.226 ± 0.078 min min^-1
- K1 (AB) plasma to tissue transport rate ([2]; healthy brain): 0.118 ± 0.132 mL min^-1 mL^-1
- K1/k2 (AB) equilibrium distribution volume ([2]; healthy brain): 0.248 ± 0.128 mL mL^-1
- k3 (AB) rate constant ([2]; healthy brain): 0.060 ± 0.039 min⁻¹
- k3/k4 (AB) ([2]; healthy brain): 3.279 ± 1.395 min min^-1
- K1 (FP) plasma to tissue transport rate ([2]; healthy brain): 0.033 ± 0.023 mL min^-1 mL^-1
- K1/k2 (FP) equilibrium distribution volume ([2]; healthy brain): 0.528 ± 0.363 mL mL^-1
- k3 (FP) rate constant ([2]; healthy brain): 0.196 ± 0.354 min⁻¹
- k3/k4 (FP) ([2]; healthy brain): 4.462 ± 1.312 min min^-1
- K1 (P) plasma to tissue transport rate ([2]; healthy brain): 0.041 ± 0.031 mL min^-1 mL^-1
- K1/k2 (P) equilibrium distribution volume ([2]; healthy brain): 0.137 ± 0.062 mL mL^-1
- k3 (P) rate constant ([2]; healthy brain): 0.086 ± 0.039 min⁻¹
- k3/k4 (P) ([2]; healthy brain): 4.021 ± 1.249 min min^-1
- K1 (AB) plasma to tissue transport rate ([2]; tumor): 0.133 ± 0.079 mL min^-1 mL^-1
- K1/k2 (AB) equilibrium distribution volume ([2]; tumor): 0.551 ± 0.221 mL mL^-1
- k3 (AB) rate constant ([2]; tumor): 0.073 ± 0.054 min⁻¹
- k3/k4 (AB) ([2]; tumor): 2.901 ± 1.331 min min^-1
- K1 (FP) plasma to tissue transport rate ([2]; tumor): 0.057 ± 0.023 mL min^-1 mL^-1
- K1/k2 (FP) equilibrium distribution volume ([2]; tumor): 1.646 ± 2.403 mL mL^-1
- k3 (FP) rate constant ([2]; tumor): 0.291 ± 0.481 min⁻¹
- k3/k4 (FP) ([2]; tumor): 4.466 ± 1.378 min min^-1
- K1 (P) plasma to tissue transport rate ([2]; tumor): 0.052 ± 0.026 mL min^-1 mL^-1
- K1/k2 (P) equilibrium distribution volume ([2]; tumor): 0.331 ±0.125 mL mL^-1
- k3 (P) rate constant ([2]; tumor): 0.231 ± 0.478 min⁻¹
- k3/k4 (P) ([2]; tumor): 3.191 ± 1.559 min min^-1
- bioavailability at 60 min [3]: 28.1%
- Tumor DV/Healthy Brain DV (FP) ([4]; free parent plasma input): 2.31 ± 0.40
- DV (AB) ([4]; healthy brain ROI): 0.66 ± 0.19
- DV (FP) ([4]; healthy brain ROI, free parent plasma input): 1.72 ± 0.66
- DV (P) ([4]; healthy brain ROI): 0.48 ± 0.14
- DV (AB) ([4]; tumor ROI): 1.35 ± 0.36
- DV (FP) ([4]; tumor ROI, free parent plasma input): 4.00 ± 1.96
- DV (P) ([4]; tumor ROI): 1.00 ± 0.30
- Tumor-to-healthy brain uptake ratio (BT4C gliomas): 4.07 ± 0.49
- Average tumor-to-healthy brain tissue uptake ratio (TBR), maximum (orthotopic BT4C gliomas): 1.99 ± 0.19
- Ic (AB) y intercept ([5]; healthy brain): 0.376 ± 0.114
- Ic (FP) y intercept ([5]; healthy brain): 0.495 ± 0.195
- Ic (P) y intercept ([5]; healthy brain): 0.236 ± 0.076
- Ic (AB) y intercept ([5]; tumor): 0.676 ± 0.221
- Ic (FP) y intercept ([5]; tumor): 0.823 ± 0.376
- Ic (P) y intercept ([5]; tumor): 0.418 ± 0.149
Compound: NC(=O)[C@H]([18F])C[C@H](N)C(=O)O [[^18F]FGln, (2S,4R)-4-[^18F]Fluoroglutamine]
